Test results as given in PubChem BioAssay (NCI).
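Cultured in 96-well plates, cells were exposed to test compound for 48 hours across five concentrations. TGI marks complete inhibition of growth.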

Key:
Assay in all cases: inhibition of tumour cell growth, NCI panel, 48 h
786-0 renal = system: 786-0 renal
A498 renal = system: A498 renal
A549 NSCLC = system: A549 NSCLC
ACHN renal = system: ACHN renal
CAKI-1 renal = system: CAKI-1 renal
CCRF-CEM leukemia = system: CCRF-CEM leukemia
COLO 205 colon = system: COLO 205 colon
DLD-1 colon = system: DLD-1 colon
DMS 114 small cell lung = system: DMS 114 small cell lung
DMS 273 small cell lung = system: DMS 273 small cell lung
EKVX NSCLC = system: EKVX NSCLC
HCC-2998 colon = system: HCC-2998 colon
HCT-116 colon = system: HCT-116 colon
HCT-15 colon = system: HCT-15 colon
HL-60(TB) leukemia = system: HL-60(TB) leukemia
HOP-18 NSCLC = system: HOP-18 NSCLC
HOP-62 NSCLC = system: HOP-62 NSCLC
HOP-92 NSCLC = system: HOP-92 NSCLC
HT29 colon = system: HT29 colon
IGROV1 ovarian = system: IGROV1 ovarian
K-562 leukemia = system: K-562 leukemia
KM12 colon = system: KM12 colon
KM20L2 colon = system: KM20L2 colon
LOX IMVI melanoma = system: LOX IMVI melanoma
LXFL 529 NSCLC = system: LXFL 529 NSCLC
M14 melanoma = system: M14 melanoma
M19-MEL melanoma = system: M19-MEL melanoma
MALME-3M melanoma = system: MALME-3M melanoma
MOLT-4 leukemia = system: MOLT-4 leukemia
NCI-H226 lung = system: NCI-H226 lung
NCI-H23 lung = system: NCI-H23 lung
NCI-H460 lung = system: NCI-H460 lung
NCI-H522 lung = system: NCI-H522 lung
OVCAR-3 ovarian = system: OVCAR-3 ovarian
OVCAR-4 ovarian = system: OVCAR-4 ovarian
OVCAR-5 ovarian = system: OVCAR-5 ovarian
OVCAR-8 ovarian = system: OVCAR-8 ovarian
RPMI-8226 leukemia = system: RPMI-8226 leukemia
RXF 393 renal = system: RXF 393 renal
SF-268 CNS = system: SF-268 CNS
SF-295 CNS = system: SF-295 CNS
SF-539 CNS = system: SF-539 CNS
SK-MEL-2 melanoma = system: SK-MEL-2 melanoma
SK-MEL-28 melanoma = system: SK-MEL-28 melanoma
SK-MEL-5 melanoma = system: SK-MEL-5 melanoma
SK-OV-3 ovarian = system: SK-OV-3 ovarian
SN12C renal = system: SN12C renal
SNB-19 CNS = system: SNB-19 CNS
SNB-75 CNS = system: SNB-75 CNS
SNB-78 CNS = system: SNB-78 CNS
SR leukemia = system: SR leukemia
SW-620 colon = system: SW-620 colon
TK-10 renal = system: TK-10 renal
U251 CNS = system: U251 CNS
UACC-257 melanoma = system: UACC-257 melanoma
UACC-62 melanoma = system: UACC-62 melanoma
UO-31 renal = system: UO-31 renal
XF 498 CNS = system: XF 498 CNS

## C(/COc1cccnc1)=N\NC1=NCCN1
786-0 renal
  TGI: > 100 µM
A498 renal
  TGI: > 100 µM
A549 NSCLC
  TGI: > 100 µM
ACHN renal
  TGI: > 100 µM
CAKI-1 renal
  TGI: > 100 µM
CCRF-CEM leukemia
  TGI: > 100 µM
COLO 205 colon
  TGI: > 100 µM
DLD-1 colon
  TGI: > 100 µM
DMS 114 small cell lung
  TGI: > 100 µM
DMS 273 small cell lung
  TGI: > 100 µM
EKVX NSCLC
  TGI: > 100 µM
HCC-2998 colon
  TGI: > 100 µM
HCT-116 colon
  TGI: > 100 µM
HCT-15 colon
  TGI: > 100 µM
HL-60(TB) leukemia
  TGI: > 100 µM
HOP-18 NSCLC
  TGI: > 100 µM
HOP-62 NSCLC
  TGI: > 100 µM
HOP-92 NSCLC
  TGI: > 100 µM
HT29 colon
  TGI: > 100 µM
IGROV1 ovarian
  TGI: > 100 µM
K-562 leukemia
  TGI: > 100 µM
KM12 colon
  TGI: > 100 µM
KM20L2 colon
  TGI: > 100 µM
LOX IMVI melanoma
  TGI: > 100 µM
LXFL 529 NSCLC
  TGI: > 100 µM
M14 melanoma
  TGI: > 100 µM
M19-MEL melanoma
  TGI: > 100 µM
MALME-3M melanoma
  TGI: > 100 µM
MOLT-4 leukemia
  TGI: > 100 µM
NCI-H226 lung
  TGI: > 100 µM
NCI-H23 lung
  TGI: > 100 µM
NCI-H460 lung
  TGI: > 100 µM
NCI-H522 lung
  TGI: > 100 µM
OVCAR-3 ovarian
  TGI: > 100 µM
OVCAR-4 ovarian
  TGI: > 100 µM
OVCAR-5 ovarian
  TGI: > 100 µM
OVCAR-8 ovarian
  TGI: > 100 µM
RPMI-8226 leukemia
  TGI: > 100 µM
RXF 393 renal
  TGI: > 100 µM
SF-268 CNS
  TGI: > 100 µM
SF-295 CNS
  TGI: > 100 µM
SF-539 CNS
  TGI: > 100 µM
SK-MEL-2 melanoma
  TGI: > 100 µM
SK-MEL-28 melanoma
  TGI: > 100 µM
SK-MEL-5 melanoma
  TGI: > 100 µM
SK-OV-3 ovarian
  TGI: > 100 µM
SN12C renal
  TGI: > 100 µM
SNB-19 CNS
  TGI: > 100 µM
SNB-75 CNS
  TGI: > 100 µM
SNB-78 CNS
  TGI: > 100 µM
SR leukemia
  TGI: > 100 µM
SW-620 colon
  TGI: > 100 µM
TK-10 renal
  TGI: > 100 µM
U251 CNS
  TGI: > 100 µM
UACC-257 melanoma
  TGI: > 100 µM
UACC-62 melanoma
  TGI: > 100 µM
UO-31 renal
  TGI: > 100 µM
XF 498 CNS
  TGI: > 100 µM

## CCC12C=CCN3CC[C@]4(C(=C(C(=O)OC)[C@@H]1Nc1ccn(C5OC(COC(C)=O)C(OC(C)=O)C5OC(C)=O)c(=O)n1)Nc1ccccc14)C32 (stereo not given in full)
786-0 renal
  TGI: 8.9 µM
A498 renal
  TGI: 10.7 µM
A549 NSCLC
  TGI: 15.1 µM
ACHN renal
  TGI: 8 µM
CAKI-1 renal
  TGI: 15.8 µM
CCRF-CEM leukemia
  TGI: 13.2 µM
COLO 205 colon
  TGI: 8.11 µM
DLD-1 colon
  TGI: 9.14 µM
DMS 273 small cell lung
  TGI: 8.54 µM
EKVX NSCLC
  TGI: 14.3 µM
HCC-2998 colon
  TGI: 7.73 µM
HCT-116 colon
  TGI: 7.37 µM
HCT-15 colon
  TGI: 6.83 µM
HL-60(TB) leukemia
  TGI: 12.6 µM
HOP-18 NSCLC
  TGI: 14.1 µM
HOP-62 NSCLC
  TGI: 8.83 µM
HOP-92 NSCLC
  TGI: 8.02 µM
HT29 colon
  TGI: 8.4 µM
IGROV1 ovarian
  TGI: 9.68 µM
K-562 leukemia
  TGI: 17.1 µM
KM12 colon
  TGI: 2.54 µM
KM20L2 colon
  TGI: 8.19 µM
LOX IMVI melanoma
  TGI: 7.81 µM
LXFL 529 NSCLC
  TGI: 8.94 µM
M14 melanoma
  TGI: 8.51 µM
M19-MEL melanoma
  TGI: 7.45 µM
MALME-3M melanoma
  TGI: 9.74 µM
MOLT-4 leukemia
  TGI: 23.5 µM
NCI-H226 lung
  TGI: 8.25 µM
NCI-H23 lung
  TGI: 3.43 µM
NCI-H460 lung
  TGI: 8.62 µM
NCI-H522 lung
  TGI: 7.17 µM
OVCAR-3 ovarian
  TGI: 7.8 µM
OVCAR-4 ovarian
  TGI: 3.57 µM
OVCAR-5 ovarian
  TGI: 3.6 µM
OVCAR-8 ovarian
  TGI: 11 µM
RPMI-8226 leukemia
  TGI: 14.7 µM
RXF 393 renal
  TGI: 6.45 µM
SF-268 CNS
  TGI: 10.9 µM
SF-295 CNS
  TGI: 10.2 µM
SF-539 CNS
  TGI: 9.17 µM
SK-MEL-2 melanoma
  TGI: 5.58 µM
SK-MEL-28 melanoma
  TGI: 8.43 µM
SK-MEL-5 melanoma
  TGI: 8.1 µM
SK-OV-3 ovarian
  TGI: 9.45 µM
SN12C renal
  TGI: 8.24 µM
SNB-19 CNS
  TGI: 9.27 µM
SNB-75 CNS
  TGI: 7.63 µM
SNB-78 CNS
  TGI: 13.8 µM
SR leukemia
  TGI: 10.2 µM
SW-620 colon
  TGI: 9.41 µM
TK-10 renal
  TGI: 10.1 µM
U251 CNS
  TGI: 7.69 µM
UACC-257 melanoma
  TGI: 3.62 µM
UACC-62 melanoma
  TGI: 6.94 µM
UO-31 renal
  TGI: 7.64 µM
XF 498 CNS
  TGI: 9.63 µM

## Fc1cccc(F)c1C1SCc2nc3ccccc3n21 (stereo not given)
786-0 renal
  TGI: > 100 µM
A498 renal
  TGI: > 100 µM
A549 NSCLC
  TGI: > 100 µM
ACHN renal
  TGI: > 100 µM
CAKI-1 renal
  TGI: > 100 µM
CCRF-CEM leukemia
  TGI: > 100 µM
COLO 205 colon
  TGI: > 100 µM
DLD-1 colon
  TGI: > 100 µM
DMS 273 small cell lung
  TGI: > 100 µM
EKVX NSCLC
  TGI: > 100 µM
HCC-2998 colon
  TGI: > 100 µM
HCT-116 colon
  TGI: > 100 µM
HCT-15 colon
  TGI: > 100 µM
HL-60(TB) leukemia
  TGI: 82.7 µM
HOP-18 NSCLC
  TGI: > 100 µM
HOP-62 NSCLC
  TGI: > 100 µM
HOP-92 NSCLC
  TGI: 95.3 µM
HT29 colon
  TGI: > 100 µM
IGROV1 ovarian
  TGI: > 100 µM
K-562 leukemia
  TGI: > 100 µM
KM12 colon
  TGI: > 100 µM
KM20L2 colon
  TGI: > 100 µM
LOX IMVI melanoma
  TGI: > 100 µM
LXFL 529 NSCLC
  TGI: > 100 µM
M14 melanoma
  TGI: > 100 µM
M19-MEL melanoma
  TGI: > 100 µM
MALME-3M melanoma
  TGI: > 100 µM
MOLT-4 leukemia
  TGI: > 100 µM
NCI-H226 lung
  TGI: > 100 µM
NCI-H23 lung
  TGI: > 100 µM
NCI-H460 lung
  TGI: > 100 µM
NCI-H522 lung
  TGI: > 100 µM
OVCAR-3 ovarian
  TGI: > 100 µM
OVCAR-4 ovarian
  TGI: > 100 µM
OVCAR-5 ovarian
  TGI: > 100 µM
OVCAR-8 ovarian
  TGI: > 100 µM
RPMI-8226 leukemia
  TGI: > 100 µM
RXF 393 renal
  TGI: > 100 µM
SF-268 CNS
  TGI: > 100 µM
SF-295 CNS
  TGI: > 100 µM
SF-539 CNS
  TGI: > 100 µM
SK-MEL-2 melanoma
  TGI: > 100 µM
SK-MEL-5 melanoma
  TGI: 75.4 µM
SK-OV-3 ovarian
  TGI: > 100 µM
SN12C renal
  TGI: > 100 µM
SNB-19 CNS
  TGI: > 100 µM
SNB-75 CNS
  TGI: > 100 µM
SNB-78 CNS
  TGI: > 100 µM
SW-620 colon
  TGI: > 100 µM
TK-10 renal
  TGI: > 100 µM
U251 CNS
  TGI: > 100 µM
UACC-257 melanoma
  TGI: > 100 µM
UACC-62 melanoma
  TGI: > 100 µM
UO-31 renal
  TGI: > 100 µM
XF 498 CNS
  TGI: > 100 µM
